Values after ≈ are worked out from the molar mass of the structure shown. Where two headings read alike, the source gives them in different places.
What was measured:
[1] = Absorption spectrum in chloroform (spectral photometer UV-1700); type: physicochemical
[2] = Solubility in methyl ethyl ketone
Description: Incidentally, a spectral photometer of UV-1700 available from Shimadzu Corporation was used.

[3] = Dissolution of colorant on preparing the coating agent; type: physicochemical; settings: 0.5 parts by weight colorant in methyl ethyl ketone / cyclohexanone with polymethacrylate
Method: 0.1 parts by weight of the Compound obtained in the Manufacturing Example 1 and 15 parts by weigh of polymethacrylate were mixed and dissolved into 50 parts by weight of methyl ethyl ketone and 35 parts by weight of cyclohexanone by stirring, and liquid coating agent was prepared.
In Comparative Example 2, a thin layer was prepared by the same procedures as Example 1 except for using a coating agent prepared by using Intermediate Compound A-1 obtained in Manufacturing Example 1 instead of using Compound 1 used in Example 1. Incidentally, the additive amount of colorant to prepare a coating agent was changed to 0.5 parts by weight. […] Therefore, a coating agent was obtained as dispersion.

Row | Compound | maximum absorption wavelength [1] [nm] | molar absorption coefficient [1] [dm^3mol^−1cm^−1] | Solubility ([2]; solvent: methyl ethyl ketone) [mg/mL] | dissolution in coating agent [3] | Solubility [2] [mg/mL]
1 | SubPcBOH [Intermediate Compound B-1, reference compound] | 562 | 45000 | – | – | –
2 | (t-Bu3SubPcB)2O [Compound 2] | 543 | 61000 | 58.5 | – | –
3 | ClB1n2c3c4ccccc4c2N=c2c4ccccc4c(n21)=NC1=NC(=N3)c2ccccc21 [Intermediate Compound A-1, SubPcBCl, reference compound] | 565 | 51000 | – | did not dissolve completely | 0.025 (≈ 58 µM)
4 | c1ccc2c(c1)C1=Nc3c4ccccc4c4n3[B-]3(O[B-]56n7c8c9ccccc9c7N=c7c9ccccc9c(n75)=NC5=[N+]6C(=N8)c6ccccc65)n5c(c6ccccc6c5=N4)=NC2=[N+]13 (stereo not drawn) [Compound 1, (SubPcB)2O] | 532 | 106000 | 1.14 (≈ 1410 µM) | – | –
5 | {(C8H17O)3SubPcB}2O [Compound 3] | 543 | 87000 | – | – | 83.2

Source: patent publication US20080210128A1, “Optical Layer including mu-oxo-bridged boron-subphthalocyanine dimer” (ORIENT CHEMICAL INDUSTRIES, LTD., priority 2007, published 2008)
